Results: patent US5948791A, “Quinoline derivatives for treating malaria” (Hoffmann-La Roche Inc., priority 1995, dated 1999)
Like-named read-outs stand apart in the source and are kept apart here.

Legend:
Plasmodium berghei = test: animal or person; format: in vivo, Plasmodium berghei (strain ANKA) in mice; conditions: Plasmodium berghei, mice, blood smears 48 h after treatment
How it was run: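 Male albino mice (~25 g) infected i.v. on D0 with P. berghei ANKA (0.2 ml of 10^8 parasitized erythrocytes/ml); single s.c. and p.o. dose 24 h post-infection, 10 mg/kg screen then titration.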

Plasmodium falciparum K1 = test: Growth inhibition of Plasmodium falciparum K1 (chloroquine-resistant) in vitro, [G-3H]-hypoxanthin incorporation; format: cell-based, Plasmodium falciparum (strain K1); conditions: for IC50: Plasmodium falciparum, K1, 72 h, read-out: IC50 for P. falciparum K1; for Resistance index: ratio of the IC50 for K1 and the IC50 for NF54
How it was run: (§1)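 Asynchronous intraerythrocytic cultures in human A+ erythrocytes (0.7% parasitemia, 2.5% suspension) in RPMI 1640 with HEPES, NaHCO3 and human serum, exposed to compound titrated over 6-7 steps for 72 h at 37° C, 3% O2. Growth by [G-3H]-hypoxanthin incorporation against untreated controls; IC50 by logit regression.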

[1] = test system: Plasmodium falciparum strain NF54; test: Growth inhibition of Plasmodium falciparum NF54 (chloroquine-sensitive) in vitro, [G-3H]-hypoxanthin incorporation; format: cell-based; conditions: chloroquine-sensitive strain NF54, 72 h, read-out: IC50 for P. falciparum NF54
How it was run: as §1

[2] = po, single peroral dose of 10 mg/kg, read-out: Growth inhibition in % after po administration (GI%, percentage reduction of the parasitemia)
[3] = sc, single subcutaneous dose of 10 mg/kg, read-out: Growth inhibition in % after sc administration (GI%, percentage reduction of the parasitemia)

Structure (SMILES) | inhibition in vivo at 10 mg/kg (Plasmodium berghei; [2]) | inhibition in vivo at 10 mg/kg (Plasmodium berghei; [3]) | IC50 (Plasmodium falciparum K1) | Resistance index (Plasmodium falciparum K1) | IC50 [1]
Cl.Cl.Fc1cc(CN[C@H]2CC[C@@H](Nc3ccnc4cc(Cl)ccc34)CC2)ccc1Cl [Example 76, cis-N1-(7-Chloro-quinolin-4-yl)-N4-(4-chloro-3-fluoro-benzyl)-cyclohexane-1,4-diamine dihydrochloride] | 96% | 96% | 6.1 ng/mL | 0.8 | 7.2 ng/mL
Cl.Cl.FC(F)(F)c1cc(CN[C@H]2CC[C@@H](Nc3ccnc4cc(Cl)ccc34)CC2)cc(C(F)(F)F)c1 [Example 77, cis-N1-(7-Chloro-quinolin-4-yl)-N4-(3,5-bis-trifluoromethyl-benzyl)-cyclohexane-1,4-diamine dihydrochloride] | 99% | 98% | 63.2 ng/mL | 0.7 | 96.6 ng/mL
COc1ccc(CN[C@H]2CC[C@@H](Nc3ccnc4cc(Cl)ccc34)CC2)c(O)c1.Cl.Cl [Example 79, cis-N1-(7-Chloro-quinolin-4-yl)-N4-(2-hydroxy-4-methoxy-benzyl)-cyclohexane-1,4-diamine dihydrochloride] | 99.9% | 100% | 7.7 ng/mL | 1.9 | 4.1 ng/mL
COc1ccc(O)c(CN[C@H]2CC[C@@H](Nc3ccnc4cc(Cl)ccc34)CC2)c1.Cl.Cl [Example 80, cis-N1-(7-Chloro-quinolin-4-yl)-N4-(2-hydroxy-5-methoxy-benzyl)-cyclohexane-1,4-diamine dihydrochloride] | 99.9% | 100% | 18.4 ng/mL | 2.1 | 8.9 ng/mL
COc1ccc(CN[C@H]2CC[C@@H](Nc3ccnc4cc(Cl)ccc34)CC2)c(OC)c1.Cl.Cl [Example 81, cis-N1-(7-Chloro-quinolin-4-yl)-N4-(2,4-dimethoxy-benzyl)-cyclohexane-1,4-diamine dihydrochloride] | 100% | 100% | 9.7 ng/mL | 2.3 | 4.3 ng/mL
COc1cc(CN[C@H]2CC[C@@H](Nc3ccnc4cc(Cl)ccc34)CC2)cc(OC)c1.Cl.Cl [Example 82, cis-N1-(7-Chloro-quinolin-4-yl)-N4-(3,5-dimethoxy-benzyl)-cyclohexane-1,4-diamine dihydrochloride] | 99.9% | 99.9% | 8.5 ng/mL | 1.5 | 5.7 ng/mL
CSc1ccc(CN[C@H]2CC[C@@H](Nc3ccnc4cc(Cl)ccc34)CC2)cc1.Cl.Cl [Example 83, cis-N1-(7-Chloro-quinolin-4-yl)-N4-(4-methylsulphanyl-benzyl)-cyclohexane-1,4-diamine dihydrochloride] | 100% | 100% | 5.9 ng/mL | 0.7 | 8.6 ng/mL
Cl.Cl.O=[N+]([O-])c1ccc(CN[C@H]2CC[C@@H](Nc3ccnc4cc(Cl)ccc34)CC2)cc1 [Example 84, cis-N1-(7-Chloro-quinolin-4-yl)-N4-(4-nitro-benzyl)-cyclohexane-1,4-diamine dihydrochloride] | 100% | 100% | 7.8 ng/mL | 1.1 | 6.9 ng/mL
CCN(CC)c1ccc(CN[C@H]2CC[C@@H](Nc3ccnc4cc(Cl)ccc34)CC2)cc1.Cl.Cl.Cl [Example 85, cis-N1-(7-Chloro-quinolin-4-yl)-N4-(4-diethylamino-benzyl)-cyclohexane-1,4-diamine trihydrochloride] | 99.9% | 100% | 3.9 ng/mL | 0.8 | 4.6 ng/mL
Cl.Cl.N#Cc1ccc(CN[C@H]2CC[C@@H](Nc3ccnc4cc(Cl)ccc34)CC2)cc1 [Example 86, cis-N1-(7-Chloro-quinolin-4-yl)-N4-(4-cyano-benzyl)-cyclohexane-1,4-diamine dihydrochloride] | 99.9% | 99.9% | 7 ng/mL | 1.3 | 5.6 ng/mL
Cl.Cl.Clc1ccc2c(N[C@H]3CC[C@@H](NCc4ccc(-c5ccccc5)cc4)CC3)ccnc2c1 [Example 87, cis-N1-(7-Chloro-quinolin-4-yl)-N4-(biphenyl-4-yl-methyl)-cyclohexane-1,4-diamine dihydrochloride] | 98% | 94% | 10.2 ng/mL | 1.6 | 6.2 ng/mL
COc1ccc(CCN[C@H]2CC[C@H](Nc3ccnc4cc(Cl)ccc34)CC2)cc1OC.Cl.Cl [Example 88, trans-N1-(7-Chloro-quinolin-4-yl)-N4-[2-(3,4-dimethoxy-phenyl)-ethyl]-cyclohexane-1,4-diamine dihydrochloride] | 66% | 99.9% | 21.4 ng/mL | 2.9 | 7.4 ng/mL
Cl.Cl.Clc1ccc2c(N[C@H]3CC[C@H](NCCc4ccccc4)CC3)ccnc2c1 [Example 89, trans-N1-(7-Chloro-quinolin-4-yl)-N4-phenethyl-cyclohexane-1,4-diamine dihydrochloride] | 99.8% | 99.9% | 17.5 ng/mL | 8.0 | 2.2 ng/mL
COc1cc(N[C@H]2CC[C@H](Nc3ccnc4cc(Cl)ccc34)CC2)cc(OC)c1.Cl [Example 90, trans-N1-(7-Chloro-quinolin-4-yl)-N4-(3,5-dimethoxy-phenyl)-cyclohexane-1,4-diamine hydrochloride] | 45% | 60% | 98.8 ng/mL | 2.0 | 49.7 ng/mL
Cl.Cl.Clc1ccc(CCN[C@H]2CC[C@H](Nc3ccnc4cc(Cl)ccc34)CC2)c(Cl)c1 [Example 91, trans-N1-(7-Chloro-quinolin-4-yl)-N4-[2-(2,4-dichloro-phenyl)-ethyl]-cyclohexane-1,4-diamine dihydrochloride] | 88% | 86% | 10.9 ng/mL | 3.2 | 3.4 ng/mL
COc1ccc(CCN[C@H]2CC[C@H](Nc3ccnc4cc(Cl)ccc34)CC2)cc1.Cl.Cl [Example 92, trans-N1-(7-Chloro-quinolin-4-yl)-N4-[2-(4-methoxy-phenyl)-ethyl]-cyclohexane-1,4-diamine dihydrochloride] | 85% | 99.7% | 8 ng/mL | 3.6 | 2.2 ng/mL
Cl.Cl.O=[N+]([O-])c1ccc(CCN[C@H]2CC[C@H](Nc3ccnc4cc(Cl)ccc34)CC2)cc1 [Example 93, trans-N1-(7-Chloro-quinolin-4-yl)-N4-[2-(4-nitro-phenyl)-ethyl]-cyclohexane-1,4-diamine dihydrochloride] | 98% | 99% | 8.3 ng/mL | 2.4 | 3.4 ng/mL
COc1cc(CCN[C@H]2CC[C@H](Nc3ccnc4cc(Cl)ccc34)CC2)cc(OC)c1.Cl.Cl [Example 94, trans-N1-(7-Chloro-quinolin-4-yl)-N4-[2-(3,5-dimethoxy-phenyl)-ethyl]-cyclohexane-1,4-diamine dihydrochloride] | 99% | 99.9% | 9.8 ng/mL | 3.4 | 2.9 ng/mL
Cl.Cl.Clc1ccc2c(N[C@H]3CC[C@H](NCCc4ccc5c(c4)OCO5)CC3)ccnc2c1 [Example 95, trans-N1-(2-Benzo[1,3]dioxol-5-yl-ethyl)-N4-(7-chloro-quinolin-4-yl)-cyclohexane-1,4-diamine dihydrochloride] | 98% | 99.7% | 9.3 ng/mL | 3.4 | 2.7 ng/mL
Cl.Cl.Clc1cccc(CCN[C@H]2CC[C@H](Nc3ccnc4cc(Cl)ccc34)CC2)c1 [Example 96, trans-N1-[2-(3-Chloro-phenyl)-ethyl]-N4-(7-chloro-quinolin-4-yl)-cyclohexane-1,4-diamine dihydrochloride] | 95% | 98% | 9 ng/mL | 5.6 | 1.6 ng/mL
COc1ccc(OC)c(CCN[C@H]2CC[C@H](Nc3ccnc4cc(Cl)ccc34)CC2)c1.Cl.Cl [Example 97, trans-N1-(7-Chloro-quinolin-4-yl)-N4-[2-(2,5-dimethoxy-phenyl)-ethyl]-cyclohexane-1,4-diamine dihydrochloride] | 49% | 99% | 17.8 ng/mL | 4.3 | 4.1 ng/mL
Cl.Cl.Clc1ccc2c(N[C@H]3CC[C@H](NCCc4ccc(Oc5ccccc5)cc4)CC3)ccnc2c1 [Example 98, trans-N1-(7-Chloro-quinolin-4-yl)-N4-[2-(4-phenoxy-phenyl)-ethyl]-cyclohexane-1,4-diamine dihydrochloride] | 50% | 93% | 8.5 ng/mL | 1.9 | 4.5 ng/mL
